{"source": "patent US20240360122A1", "about": "“POLYMORPHIC FORMS AND SALTS OF A GLP-1R AGONIST” (Terns (Suzhou) Biotechnology Co., Ltd., priority 2023, published 2024)", "assay": "Approximate solubility in different solvents at RT", "type": "physicochemical", "description": "For each experiment, approximately 2 mg of sample was added into a 3-mL glass vial. Corresponding solvents were then added stepwise (50/50/200/700/1000 μL) into the vials until the solids were dissolved visually or a total volume of 2 mL was reached. Solubility results summarized in Table 64 to Table 66 were used to guide the solvent selection in polymorph screening design."}
{"smiles": "N#Cc1ccc(COc2cccc(C3CCN(Cc4nc5ccc(C(=O)O)cc5n4Cc4cncs4)CC3)n2)c(F)c1", "note": "[Freeform Type D]", "values": [{"measurement": "Approximate solubility", "setting": "1,4-Dioxane, RT", "result": "S < 1.1 mg/mL"}, {"measurement": "Approximate solubility", "setting": "2-MeTHF, RT", "result": "S < 1.0 mg/mL"}, {"measurement": "Approximate solubility", "setting": "Anisole, RT", "result": "S < 1.0 mg/mL"}, {"measurement": "Approximate solubility", "setting": "CHCl3, RT", "result": "S < 1.1 mg/mL"}, {"measurement": "Approximate solubility", "setting": "CPME, RT", "result": "S < 0.9 mg/mL"}, {"measurement": "Approximate solubility", "setting": "DMSO, RT", "result": "S > 44.0 mg/mL"}, {"measurement": "Approximate solubility", "setting": "H2O, RT", "result": "S < 1.1 mg/mL"}, {"measurement": "Approximate solubility", "setting": "IPA, RT", "result": "S < 1.1 mg/mL"}, {"measurement": "Approximate solubility", "setting": "MTBE, RT", "result": "S < 1.1 mg/mL"}, {"measurement": "Approximate solubility", "setting": "Toluene, RT", "result": "S < 1.0 mg/mL"}, {"measurement": "Approximate solubility", "setting": "n-Heptane, RT", "result": "S < 1.0 mg/mL"}]}
